Measured values from patent publication US20250205215A1, “NOVEL USE OF PITOLISANT FOR TREATING SEVERE FATIGUE” (BIOPROJET, priority 2022, published 2025).
“Also recorded” adds a separate entry of the source. Structures can show the parent of a compound that is named as a salt. Where two headings read alike, the source gives them in different places.

How the values were obtained:
[1] = system: patients with multiple sclerosis; conditions: cited from earlier work
healthy volunteers [2] = test: Critical Flicker Fusion Test (CFFT) in healthy volunteers; assay type: in vivo, human; conditions: for Fusion Frequency (Flicker Fusion Test), fatigue: end of the day, healthy volunteers
Source text: The flicker fusion frequency (F.F.F.) is defined as the frequency, in flickers per second, at which an interrupted light appears as a steady light. It has been established that the score made in such tests can be used as a measure of fatigue (Luczak A, et al. Ergonomics, 2005 Dec. 15; 48 (15):1770-92; Ma et al PLOS One, 2014 Feb. 5; 9 (2):e87121; Maeda et al Jpn J Radiol. 2011 August; 29 (7):483-7).
In human healthy volunteers, fatigue can be evaluated at the end of the day, when fatigue tends to increase, using a known psychometric test, the Flicker Fusion Test as reported by Luczak A, et al. Ergonomics, 2005 Dec. 15; 48 (15):1770-92; Ma et al PLOS One, 2014 Feb. 5; 9 (2):e87121; Maeda et al Jpn J Radiol. 2011 August; 29 (7):483-7.
In a group of 36 healthy volunteers, the change in Fusion Frequency was evaluated at several times along the day and after administration of either placebo or pitolisant monohydrochloride at increasing dosages (20, 40 or 60 mg).

healthy volunteers [3] = test: Wakefulness assessed by Spectral EEG in healthy volunteers; assay type: in vivo, human; conditions: 40 mg
[4] = system: human volunteers deprived of sleep; test: Fusion Frequency in volunteers deprived of sleep during 24 h; assay type: in vivo; conditions: 30 mg once a day
Description: Pitolisant hydrochloride was administered once a day at a dose of 30 mg in human volunteers deprived of sleep during 24 h. Fatigue evaluated in these volunteers by the Fusion Frequency was not modified by either placebo or pitolisant at this dose.

healthy volunteers [5] = test: Adverse effect study at high doses in healthy volunteers; assay type: in vivo, human
Description: (§1) A group of 24 healthy volunteers received placebo or pitolisant monohydrochloride mg at doses of 160, 200 or 240 mg. This last dose corresponds to 6 times the maximum dosage recommended in narcolepsy.
Furthermore, the rare abnormalities were reported in all treatment groups.

[6] = Blood levels of pitolisant and metabolites in healthy volunteers; assay type: in vivo, human; conditions: 160, 200 or 240 mg, blood samples
Description: as §1

histamine H3 receptors = target: T1, histamine H3 receptors (Homo sapiens, UniProt Q9Y5N1); conditions: 40 mg, cited from earlier work
T1 construct: Brain Histamine H3 Receptors Occupancy; from tissue; host or cells: living human brain (in vivo PET); value cited from Rusjan et al., Br J Pharmacol 2020
T1 sequence (Q9Y5N1 whole entry): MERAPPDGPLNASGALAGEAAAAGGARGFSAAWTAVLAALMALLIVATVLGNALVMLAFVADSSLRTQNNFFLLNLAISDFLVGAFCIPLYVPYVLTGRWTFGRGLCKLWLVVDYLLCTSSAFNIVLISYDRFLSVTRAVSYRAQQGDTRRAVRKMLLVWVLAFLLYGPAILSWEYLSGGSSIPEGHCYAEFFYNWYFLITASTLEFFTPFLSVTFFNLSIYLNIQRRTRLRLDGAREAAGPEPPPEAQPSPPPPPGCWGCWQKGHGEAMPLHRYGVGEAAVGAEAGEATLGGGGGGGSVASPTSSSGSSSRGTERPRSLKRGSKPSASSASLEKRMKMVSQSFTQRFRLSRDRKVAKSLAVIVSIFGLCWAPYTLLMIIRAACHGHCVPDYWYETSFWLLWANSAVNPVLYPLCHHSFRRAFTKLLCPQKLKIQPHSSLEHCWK

[7] = system: patients with Obstructive Sleep Apnea (OSA); conditions: 20 mg od, cited from earlier work
patients with narcolepsy = conditions: 20 to 40 mg once a day, cited from earlier work
[8] = system: patients with neurological conditions; conditions: meta-analysis, variety of neurological conditions; cited from earlier work
[9] = 160, 200 or 240 mg, healthy volunteers

Compound: NC12CC3CC(CC(C3)C1)C2 [Amantadine, amantadine]
- Adverse events versus placebo [1]: more frequent adverse events
- Improving multiple sclerosis fatigue versus placebo [1]: not superior to placebo

Compound: Clc1ccc(CCCOCCCN2CCCCC2)cc1 [pitolisant monohydrochloride]
- Fusion Frequency (Flicker Fusion Test), fatigue (healthy volunteers [2]; 60 mg orally): reversed the alteration
- Fusion Frequency (Flicker Fusion Test), fatigue (healthy volunteers [2]; 60 mg orally, listed as pitolisant hydrochloride): significantly improved
- Flicker Fusion Test, fatigue (conclusion) (healthy volunteers [2]; 30 to 40 mg treatment, conclusion over examples 1 and 2): not improved
- Fusion Frequency (Flicker Fusion Test), fatigue (healthy volunteers [2]; lower doses (20, 40 mg)): failed. to provide a significant change
- Wakefulness by Spectral EEG (healthy volunteers [3]): improved significantly
- Fatigue evaluated by the Fusion Frequency ([4]; listed as Pitolisant hydrochloride): not modified
- Number and nature of adverse events versus placebo (healthy volunteers [5]; [9]): did not differ
- Blood level of pitolisant and metabolites [6]: dose proportionality
- Occupancy of histamine H3 receptors (mean±SD) (histamine H3 receptors; PET scan, healthy volunteers): 84±7%
- Occupancy of the brain histamine H3-receptors (in words) (histamine H3 receptors): high occupancy
- SF evaluated with the Pichot scale ([7]; OSA, trial of Dauvilliers et al. 2020): statistically different from placebo
- EDS in patients with OSA ([7]; two trials): reduced
- EDS and cataplexy in patients with narcolepsy (patients with narcolepsy; listed as Pitolisant monohydrochloride): shown to improve

Compound: NC(=O)C[S+]([O-])C(c1ccccc1)c1ccccc1 (stereo not shown) [modafinil]
- Effect on EDS [8]: generally effective
- Effect on fatigue [8]: without clear effect
- Adverse events versus placebo [1]: more frequent adverse events
- Improving multiple sclerosis fatigue versus placebo [1]: not superior to placebo

Compound: COC(=O)C(c1ccccc1)C1CCCCN1 (stereo not shown) [methylphenidate]
- Adverse events versus placebo [1]: more frequent adverse events
- Improving multiple sclerosis fatigue versus placebo [1]: not superior to placebo

Compound: Clc1ccc(CCCOCCCN2CCCCC2)cc1 [pitolisant, 3-(4-Chlorophenyl) propyl 3-piperidinopropyl ether]
- Fatigue evaluated by the Fusion Frequency [4]: not improved
- Safety and tolerability (healthy volunteers [5]; 160 mg, 200 mg and 240 mg (doses up to 240 mg od)): without overt adverse effect; also recorded: safe and well tolerated
- Laboratory parameters, vital signs, physical examination and ECG parameters (healthy volunteers [5]; [9]): No significant abnormalities
- EDS and cataplexy in patients with narcolepsy (patients with narcolepsy): significant effect
